Measurements taken from patent US9580487B2, “Method of treating stomach or bowel-related disorders by administering glucagon-like-peptide-2 (GLP-2) analogues” (Zealand Pharma A/S, priority 2005, dated 2017).
“Also recorded” adds a separate entry of the source. No end group written: not given here.

What was measured:
[1] = tested on: Sprague-Dawley rats treated with 5-Fluorouracil (5-FU); experiment: 5-FU-induced small intestinal atrophy and diarrhea in SD rats; format: in vivo
Protocol: FIG. 10 is a set of graphs showing effects of compound 1846 (SEQ ID NO:34) (16, 80 and 400 nmol/kg/d; s.c., n=6/dose group) in male Spague-Dawley rats treated with the cytostatic drug 5-Fluorouracil (5-FU). Compound 1846 (SEQ ID NO:34) was administered for 3 days prior to and for 4 days together with 5-FU (75 mg/kg, i.p. daily). Results were compared with responses in control animals treated with vehicle (saline) or 5-FU alone. Saline and 5-FU controls are also shown. […] Values are means±SEM. * P<0.05, relative to 5-FU alone.
FIG. 11 is a set of graphs showing the therapeutic effect of compound 1846 (SEQ ID NO:34) on diarrhea induced by treatment with the cytostatic drug 5-fluorouracil (5-FU). Rats were treated with 5-FU for 4 days with 75 mg/kg once daily (days 1-4); (n=40 rats). Half of the animals received additional treatment with compound 1846 (SEQ ID NO:34) (400 nmol/kg s.c. once daily) during the last 3 days prior to (days −3 to −1) and during 4 days of 5-FU treatment (days 0 to 3). Rats were observed twice daily (morning and evening) to determine whether the animal had diarrhea and the severity of the diarrhea was scored according to this scale: (0) no diarrhea; (1) mild—fecal staining around the anus; (2) moderate—fecal staining on the hind limbs and tail; and (3) severe—fecal staining on the front limbs and abdomen. On day 5, about 70% of Sprague Dawley rats that received 5-FU alone had developed diarrhea (FIG. 11A) while only 30% of the rats that were co-treated with compound 1846 (SEQ ID NO:34) developed diarrhea (FIG. 11B).
The effect of the clinical candidate, 1846 (SEQ ID NO:34), on 5-FU-induced small intestinal atrophy and diarrhea was investigated in SD rats. We have previously shown that i.p. administration of 75 mg/kg 5-FU once daily for four days induces significant small intestinal atrophy and diarrhea in SD rats. 1846 (SEQ ID NO:34) (16, 80 and 400 nmol/kg/d; […]) was administered twice daily for three days prior to 5-FU and for four days together with 5-FU administration. 5-FU controls and PBS controls were included in the study. […]

TNF-α = experiment: Small intestinal tissue content of TNF-α (ELISA) in rats with indomethacin-induced inflammation; format: in vivo; details: for Tissue levels of TNF-α, proximal segment: indomethacin alone 97±14, control 34±7
Protocol: Male Sprague Dawley rats were treated with vehicle (saline; group 1) or indomethacin (7 mg/kg s.c., once daily for two days; groups 2-7). […] On day 3, rats were sacrificed and upon necropsy, the small intestine was divided into three segments of equal length corresponding to 1) duodenum and proximal jejunum, 2) mid and distal jejunum and 3) ileum. Samples were immediately snap-frozen in liquid N2 and stored at −80° C. until analysis. Homogenization and extraction of cellular protein from small intestinal segments was performed according to the following procedure: Tissue segments were weighed and added a volume of 1.5 ml per gram tissue ice-cold (4° C.) extraction buffer (10 mM Tris-HCl (Sigma) and 1 mM EDTA (J. T. Baker), (pH 7.6) with 0.05% sodium azide (Fluka), 1% Tween-80 (Fluka), 2 mM phenylmethylsulfonyl fluoride (PMSF, Fluka) and 1 μg/ml of each of the protease inhibitors aprotinin, leupeptin and pepstatin A (Roche Diagnostics)). The tissue was cut into small bits with a pair of scissors and homogenized three times for 20 seconds (IKA UltraTurrax T25 homogenizer, Janke & Kunkel) at 9500 rpm with intermittent cooling on ice for 30 seconds. The homogenate was centrifuged at 20.000×g for 30 minutes at 4° C., the supernatant was collected and stored at −20° C. until analysis for TNF-α small intestinal protein extractions were analyzed for TNF-α using a commercially available ELISA kit according to the manufacturer's instructions (Rat Tumor Necrosis Factor-α UltraSensitive ELISA kit, Biosource International Inc.). The assay has a detection limit of 0.7 pg/ml. Protein extractions were analyzed for total protein content using a commercially available assay (DC protein assay, Bio-Rad Laboratories Ltd.). Small intestinal tissue levels of TNF-α were expressed relative to total protein. […] Values are means±SEM. * P<0.05 vs. indomethacin (group 2).
At sacrifice, however the small intestine was separated into three segments of equal length (proximal, mid and distal). TNF-α concentrations were measured in each of the individual segments using a commercially available ELISA kit.

[Gly2, Glu3, Ser8,11, Leu10, Ala16,24,28]hGLP-2(1-33)-(Lys)6-NH2 (HGEGSFSSELSTILDALAARDFIAWLIATKITDKKKKKK-NH2) [Compound 1846]
Rats that developed diarrhea on day 5 ([1]; 400 nmol/kg s.c. with 5-FU 75 mg/kg, 5-FU alone about 70%): 30%
5-FU-induced small intestinal atrophy (SI-BW, SI length) in rats ([1]; 16, 80 and 400 nmol/kg/d s.c., 3 days prior to and 4 days with 5-FU 75 mg/kg i.p. daily): prevented 5-FU-induced small intestine atrophy; also recorded: dose-dependently prevented 5-FU induced small intestinal atrophy and maintained SI-BW and SI length at levels similar to the controls
Incidence and severity of diarrhea ([1]; highest dose (400 nmol/kg), rats administered 5-FU): decreased the incidence and severity of diarrhea

[Gly2, Glu3, Thr5, Ser8, Leu10, Ala11,16,24,28]hGLP-2(1-33)-(Lys)6-NH2 (HGEGTFSSELATILDALAARDFIAWLIATKITDKKKKKK-NH2) [Compound 1848]
Tissue levels of TNF-α, proximal segment (TNF-α; 8 nmol/kg): 45±14 pg/mg protein
Tissue levels of TNF-α, proximal segment (TNF-α; 40 nmol/kg): 44±9 pg/mg protein
Tissue levels of TNF-α, proximal segment (TNF-α; 200 nmol/kg): 45±7 pg/mg protein
Small intestinal tissue levels of TNF-α (in words) (TNF-α; 8, 40 or 200 nmol/kg, indomethacin-treated rats): significantly decreased small intestinal tissue levels of the proinflammatory cytokine TNF-α
Tissue levels of TNF-α, mid segment (in words) (TNF-α; 40 or 200 nmol/kg, indomethacin alone 108±9 pg/mg protein): significantly reduced tissue levels of TNF-α
TNF-α levels, distal segment (in words) (TNF-α; indomethacin alone 75±5 pg/mg protein): inhibitory effect on TNF-α levels in the distal segment but the effect was less pronounced compared to the other segments
TNF-α: efficacy compared with prednisolone (TNF-α; vs prednisolone 10 mg/kg): more efficacious than prednisolone in the proximal and mid segments
